The source of these data is patent publication US6818646B2 (priority 2000, dated 2004).

Molecules are shown by their SMILES. Structures can show the parent of a compound that is named as a salt.

In the test the target is T1, PDEV (Homo sapiens, UniProt O76074).
T1 construct: PDEV was isolated from rabbit and human tissues according to the protocol described by Boolell et al; from tissue; host or cells: human tissue, homogenate supernatant fractionated on Mono Q
Nature of the test: PDE assay: inhibition of PDEV isolated from human tissue. It counts as biochemical. As to conditions: PDEV inhibitory activity. As to the method:
Briefly, rabbit or human tissues were homogenized in an ice-cold buffer solution containing 20 mM HEPES (pH 7.2), 0.25M sucrose, 1 mM EDTA, and 1 mM phenylmethylsulphonyl fluoride (PMSF). The homogenates were centrifuged at 100,000 g for 60 minutes at 4° C. The supernatant was filtered through […] filter and loaded on a Pharmacia Mono Q anion exchange column (1 ml bed volume) that was equilibrated with 20 mM HEPES, 1 mM EDTA and 0.5 mM PMSF. After washing out unbound proteins, the enzymes were eluted with a linear gradient of 100-600 mM NaCl in the same buffer (35 to 50 ml total, depending on the tissue. Enzymes from the skeletal muscle, corpus cavernosum, retina, heart and platelet were eluted with 35, 40, 45, 50, and 50 ml respectively.) The column was run at a flow rate of 1 ml/min and 1 ml fractions were collected. The fractions comprising various PDE activities were pooled separately and used in later studies.
The assays were adapted to a 96-well format. The enzyme was assayed in 5 mM MgCl2, 15 mM Tris HCl (pH 7.4), 0.5 mg/ml bovine serum albumin, 1 μM cGMP or cAMP, 0.1 μCi [^3H]-cGMP or [^3H]-cAMP, and 2-10 μl of column elution. The total volume of the assay was 100 μl. The reaction mixture was incubated at 30° C. for 30 minutes. The reaction was stopped by boiling for 1 minute and then cooled down on ice. The resulting [^3H]5′-mononucleotides were further converted to uncharged [^3H]-nucleosides by adding 25 μl 1 mg/ml snake venom (Ophiophagus hannah) and incubating at 30° C. for 10 minute. The reaction was stopped by the addition of 1 ml Bio-Rad AG1-X2 resin slurry (1:3). All the charged nucleotides were bound by the resin and only uncharged [^3H]-nucleosides remained in the supernatant after centrifuging. An aliquot of 200 μl was taken and counted by liquid scintillation. PDE activity was expressed as pmol cyclic nucleotide hydrolyzed/min/ml of enzyme preparation.
Inhibitor studies were carried out in assay buffer with a final concentration of 10% DMSO.
The % inhibition of the maximum substrate conversion (by the enzyme in the absence of inhibitor) was calculated for each test compound concentration. Using GraphPad Prism's nonlinear regression analysis (sigmoidal dose response), the % inhibition vs log of the test compound concentration was plotted to determine the IC50. Under conditions where substrate concentration <<Km of the enzyme (Km=substrate concentration at which half of the maximal velocity of the enzyme is achieved), Ki is equivalent to the IC50 value.
Unless otherwise noted, PDEV inhibitory activities were measured using human tissue. The abbreviation “stereo” refers to the stereogenic configuration, the abbreviation “Rac” shall denote a racemic mixture.

`COc1ccc(-c2cnc(N3Cc4c([nH]c5ccccc5c4=O)C3c3ccc4c(c3)CCO4)nc2)cc1` (stereo not shown) [Compound 39, 1,2,3,4-Tetrahydro-2-[5-(4-methoxyphenyl)-pyrimidin-2-yl]-3-(2,3-dihydrobenzofuranyl)-9H-pyrrolo-[3,4-b]quinolin-9-one] had an IC50 of 0.47 nM.

`O=C(c1cc2ccc(O)cc2o1)N1Cc2c(nc3ccccc3c2O)C1c1ccc2c(c1)OCO2` (racemic) [Compound 9, 1,2,3,4-Tetrahydro-3-(3,4-methylenedioxyphenyl)-2-(6-hydroxy-2-benzo-furoyl)-9H-pyrrolo[3,4-b]quinolin-9-one]: the half-inhibitory concentration (IC50) was determined as 0.46 nM.

Molecule `Cc1ccc(-c2cnc(N3Cc4c([nH]c5ccccc5c4=O)C3c3ccc4c(c3)OCO4)nc2)cc1` (racemic) [Compound 7, 1,2,3,4-Tetrahydro-2-[5-(4-methylphenyl)-pyrimidin-2-yl]-3-(3,4-methylenedioxyphenyl)-9H-pyrrolo-[3,4-b]quinolin-9-one] gave an IC50 of 0.325 nM.

The molecule `O=C(c1ccc(-c2ccc([N+](=O)[O-])cc2)o1)N1Cc2c(nc3ccccc3c2O)C1c1ccc2c(c1)OCO2` (racemic) [Compound 16, 1,2,3,4-Tetrahydro-3-(3,4-methylenedioxyphenyl)-2-[5-(4-nitrophenyl)-furoyl]-9H-pyrrolo[3,4-b]quinolin-9-one] returned an IC50 of 0.39 nM.

On to `O=C(c1ccc(-c2ccc(OCCN3CCCC3)cc2)o1)N1Cc2c(nc3ccccc3c2O)C1c1ccc2c(c1)OCO2` (racemic) [Compound 45, 1,2,3,4-Tetrahydro-3-(3.4-methylenedioxyphenyl)-2-(5-(4-(2-(1-pyrrolidinyl)ethoxy)phenyl)-furoyl)-9H-pyrrolo[3,4-b]quinolin-9-one], for which half-maximal inhibition (IC50) required 1.33 nM. This IC50 is about 3.4-fold higher than that of the molecule before.

Take `O=c1c2c([nH]c3ccccc13)C(c1ccc3c(c1)OCO3)N(c1ncc(-c3ccncc3)cn1)C2` (racemic) [Compound 57, 1,2,3,4-Tetrahydro-2-[5-(4-pyridinyl)-pyrimidin-2-yl]-3-(3,4-methylenedioxyphenyl)-9H-pyrrolo-[3,4-b]quinolin-9-one]: the IC50 turned out to be 0.84 nM.

The molecule `O=C(c1ccc(-c2ccc(O)cc2)o1)N1Cc2c(nc3ccccc3c2O)C1c1ccc2c(c1)OCO2` (racemic) [Compound 22, 1,2,3,4-Tetrahydro-3-(3,4-methylenedioxyphenyl)-2-[5-(4-hydroxyphenyl)furoyl]-9H-pyrrolo[3,4-b]-quinolin-9-one] registered an IC50 of 0.86 nM.

As to `O=c1c2c([nH]c3ccccc13)C(c1ccc3c(c1)OCO3)N(Cc1ccncc1)C2` (racemic) [Compound 5, 1,2,3,4-Tetrahydro-3-(3,4-methylenedioxyphenyl)-2-(pyridin-4-yl)methyl-9H-pyrrolo-[3,4-b]quinolin-9-one], the IC50 stood at 688 nM.

In turn, `O=c1c2c([nH]c3ccccc13)C(c1ccc3c(c1)OCO3)NC2` (racemic) [Compound 4, 1,2,3,4-Tetrahydro-3-(3,4-methylenedioxyphenyl)-9H-pyrrolo-[3,4-b]quinolin-9-one, hydrochloride salt] showed a half-maximal inhibitory concentration (IC50) of 664 nM. This IC50 and that of the molecule before are within 1.5-fold of each other.

The molecule `O=C(c1ccc(-c2ccsc2)o1)N1Cc2c(nc3ccccc3c2O)C1c1ccc2c(c1)OCO2` (racemic) [Compound 112] registered a half-maximal inhibitory concentration (IC50) of 0.699 nM. This IC50 lies about 950-fold lower than the previous one.

In the case of `Oc1c2c(nc3ccccc13)C(c1ccc3c(c1)CCO3)N(c1ncc(Br)cn1)C2` (racemic) [Compound 74], the IC50 amounted to 1.9 nM.

`Oc1c2c(nc3ccccc13)C(c1ccc3c(c1)OCO3)N(c1ncc(-c3cccnc3)cn1)C2` (racemic) [Compound 100] returned an IC50 of 0.52 nM.

The molecule `Nc1ccc(-c2ccc(C(=O)N3Cc4c([nH]c5ccccc5c4=O)C3c3ccc4c(c3)OCO4)o2)cc1` (racemic) [Compound 26, 1,2,3,4-tetrahydro-3(3,4-methylenedioxyphenyl)2-[5-(4-aminophenyl)-furoyl]-9H-pyrrolo[3,4-b]quinolin-9-one] gave a half-inhibitory concentration (IC50) of 1.92 nM.

For orientation: IC50 means the concentration that inhibits the measured activity by half. Read a high IC50 as weaker potency.
